Source: PMC10873978, “Novel tetrahydroisoquinolines as DHFR and CDK2 inhibitors: synthesis, characterization, anticancer activity and antioxidant properties” (BMC Chemistry, 2024)
Values joined by “and” are separate entries in the source; they are usually repeats but may differ in a detail not shown here. Equal values may be shown once. Read-outs that look alike come from different tables or passages of the source.

Legend:
[1] = tested on: WI-38 cell line; test: Cytotoxicity on normal cell line WI-38; type: cell-based, human; settings: for IC50: read-out: Toxicity on WI38 IC50 ± SD
[2] = Cytotoxicity on normal cell line WI-38; type: cell-based, human; settings: human, WI-38 cells (normal fetal lung fibroblasts)
[3] = tested on: MCF7 cell line; test: Annexin-V FITC/PI apoptosis assay, MCF7; type: cell-based, human; settings: MCF7, compound at IC50, 24 h
Method: (www.biovision.com). […] These stained cells were measured using flow cytometry with an excitation wavelength of 488 nm and an emission wavelength of 530 nm. The results were then analyzed with the Cell quest software.
To further investigate whether the anti-proliferative activity for compound 7e or 8d is harmonious with the apoptosis induction within A549 or MCF7 cells pointed out by the increased cell population in G2/M phase in 7e-treated A549 cells and S phase in 8d-treated MCF7 cells, respectively, and AnnexinV-FITC/PI dual staining analysis was used for the apoptosis assay (Fig. 3).

[4] = biological target: T1, Dihydrofolate Reductase (DHFR) (Homo sapiens, UniProt P00374); test: DHFR inhibitors assay kit (absorbance 340 nm); type: biochemical; settings: for %inh: DHFR
T1 construct: purchased abcam ab283374
T1 sequence (P00374 1-187): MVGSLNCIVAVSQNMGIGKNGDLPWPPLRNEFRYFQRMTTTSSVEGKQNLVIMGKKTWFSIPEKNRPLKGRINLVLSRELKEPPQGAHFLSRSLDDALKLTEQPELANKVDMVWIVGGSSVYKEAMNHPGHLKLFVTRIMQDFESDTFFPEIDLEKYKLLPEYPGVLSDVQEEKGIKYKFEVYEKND
Method: The DHFR inhibitors assay kit was performed according to abcam (code ab283374); (www.abcam.co.jp).
Firstly, Dilute 2 μL Dihydrofolate Reductase with798 μL DHFR Assay Buffer. Then add 98 μL of diluted Dihydrofolate Reductase into desired well(s) containing the out synthesized 8d compound. Add 40 μL of diluted NADPH to each well containing the test samples. Incubate at room temperature for 10–15 min. Add 60 μL of diluted DHFR substrate to each well containing the test samples vortex briefly and keep on ice. Measure the absorbance immediately at 340 nm. Then calculate the inhibition concentration of 8d compound. The data was analyzed and plot by Graphpad prism software.

[5] = tested on: A549 cell line; test: In vitro cytotoxic activity, MTT method, A549
Outline: (§1)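 MTT assay: cells seeded at 10^5 cells/mL, grown 24 h at 37 °C to a monolayer, then exposed to serial tetrahydroisoquinoline concentrations at 37 °C. MTT (5 mg/mL stock) added for 1–5 h; OD read at 560 nm minus 620 nm background. Doxorubicin as positive control.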

[6] = tested on: MCF7 cell line; test: In vitro cytotoxic activity, MTT method, MCF7; type: cell-based, human; settings: for IC50: MTT
Outline: as §1

[7] = biological target: Eef2 kinase (Homo sapiens, UniProt O00418); test: Eef2 kinase inhibition; type: biochemical
[8] = tested on: MCF7 cells; test: Cell cycle analysis (propidium iodide flow cytometry), MCF7; type: cell-based, human
Method: Then centrifuged the cells and washed twice with ice-cold PBS, and incubated for 20 min at 4 °C. A cell cycle assay was used to assess the cell cycle (Propidium Iodide Flow Cytometry Kit [ab13941]. Then perform statistical analysis for the result by the Cell quest software on the cell fractions in sub-G0/G1, S, and G2/M phases.

[9] = MCF7 cells, compound at IC50, 48 h

For `CC(=O)c1ccc(NC(=O)c2sc3nc(C)c4c(c3c2N)CC(C)(O)C(C(C)=O)C4c2ccc(N(C)C)cc2)cc1` (stereo not drawn) [Compound 8d, 7-Acetyl-N-(4-acetylphenyl)-1-amino-5,8-dimethyl-8-hydroxy-6-(4-N,N-dimethylaminophenyl)-6,7,8,9-tetrahydrothieno[2,3-c]isoquinoline-2-carboxamide], the IC50 ([1]; Homo sapiens, WI-38, normal human fetal lung fibroblast WI-38) was 23.3 µM, the “Selectivity index (SI)” value ([1]; IC50 in WI-38 / IC50 in A549) was 45 and 45.24 and the “% viability” value ([1]; WI38, 6.25uM (log conc. 0.8), 6.25 µM) was 73.9744%. The “% viability” value ([1]; WI38, 25uM (log conc. 1.4), 25 µM) was 46.8729%, the IC50 ([1]; normal human fetal lung fibroblast WI-38) was 23.3 ± 0.93 µM and the viability at 3.125 µM ([2]; WI38) was 86.3%. It also gave a viability at 1.55 µM ([2]; WI38, 1.55uM (log conc. 0.19), read-out: % viability) of 96.7%, a viability at 6.25 µM ([2]; WI38, 6.25uM (log conc. 0.8), read-out: % viability) of 74% and a viability at 12.5 µM ([2]; WI38, 12.5uM (log conc. 1.1), read-out: % viability) of 62.8%. For the same compound, the viability at 25 µM ([2]; WI38, 25uM (log conc. 1.4), read-out: % viability) was 46.9%, the early apoptotic population [3] was 22.38% and the late apoptotic population [3] was 26.96%. For the same compound, the “population of necrotic cells” value [3] was 5.04%, the “%inh” value ([4]; conc 0.01 (log -2)) was 27.5% and the “%inh” value ([4]; conc 0.1 (log -1)) was 38.9%. For the same compound, the “%inh” value ([4]; conc 1 (log 0)) was 67.1%, the “%inh” value ([4]; conc 10 (log 1)) was 85.7% and the “%inh” value ([4]; conc 100 (log 2)) was 93%. It also gave an IC50 ([4]; read-out: DHFR inhibition (IC50 ± SD)) of 0.199 ± 0.016 µM, a Toxicity % ([5]; A549, Conc. 0.04875 µMol) of 13.49% and a Toxicity % ([5]; A549, Conc. 0.0975 µMol) of 15.39%. For the same compound, the Toxicity % ([5]; A549, Conc. 0.195 µMol) was 19.17%, the Viability % ([5]; A549, Conc. 0.195 µMol) was 80.83% and the Toxicity % ([5]; A549, Conc. 0.391 µMol) was 43.87%. It also gave a Viability % ([5]; A549, Conc. 0.391 µMol) of 56.13%, a Toxicity % ([5]; A549, Conc. 0.781 µMol) of 53.45% and a Viability % ([5]; A549, Conc. 0.781 µMol) of 46.55%. The Toxicity % ([5]; A549, Conc. 1.562 µMol) was 68.4%, the Viability % ([5]; A549, Conc. 1.562 µMol) was 31.6% and the Toxicity % ([5]; A549, Conc. 3.125 µMol) was 82.68%. It also gave a Viability % ([5]; A549, Conc. 3.125 µMol) of 17.32%, a Toxicity % ([5]; A549, Conc. 6.25 µMol) of 88.4% and a Viability % ([5]; A549, Conc. 6.25 µMol) of 11.6%. It also gave a Toxicity % ([5]; A549, Conc. 12.5 µMol) of 96.41%, a Viability % ([5]; A549, Conc. 12.5 µMol) of 3.59% and a Toxicity % ([5]; A549, Conc. 25 µMol) of 96.65%. For the same compound, the Viability % ([5]; A549, Conc. 25 µMol) was 3.353%, the IC50 ([5]; Homo sapiens, read-out: IC50 ± SD) was 0.515 ± 0.002 µM and the IC50 ([6]; Homo sapiens, MCF7, MCF7 cell line) was 0.17 µM. For the same compound, the Toxicity % ([6]; MCF7, Conc. 0.0487 µMol) was 21.79%, the Viability % ([6]; MCF7, Conc. 0.0487 µMol) was 78.2125% and the Viability % ([6]; MCF7, Conc. 0.0975 µMol) was 54.4424%. For the same compound, the Toxicity % ([6]; MCF7, Conc. 0.195 µMol) was 54.13%, the Viability % ([6]; MCF7, Conc. 0.195 µMol) was 45.87% and the Toxicity % ([6]; MCF7, Conc. 0.391 µMol) was 65.48%. It also gave a Viability % ([6]; MCF7, Conc. 0.391 µMol) of 34.52%, a Toxicity % ([6]; MCF7, Conc. 0.781 µMol) of 88.6% and a Viability % ([6]; MCF7, Conc. 0.781 µMol) of 11.4%. For the same compound, the Toxicity % ([6]; MCF7, Conc. 1.562 µMol) was 93.83%, the Viability % ([6]; MCF7, Conc. 1.562 µMol) was 6.168% and the Toxicity % ([6]; MCF7, Conc. 3.125 µMol) was 94.61%. It also gave a Viability % ([6]; MCF7, Conc. 3.125 µMol) of 5.392%, a Toxicity % ([6]; MCF7, Conc. 6.25 µMol) of 96.41% and a Viability % ([6]; MCF7, Conc. 6.25 µMol) of 3.595%. For the same compound, the Toxicity % ([6]; MCF7, Conc. 12.5 µMol) was 97.06%, the Viability % ([6]; MCF7, Conc. 12.5 µMol) was 2.941% and the Toxicity % ([6]; MCF7, Conc. 25 µMol) was 97.55%. For the same compound, the Viability % ([6]; MCF7, Conc. 25 µMol) was 2.451%, the IC50 ([6]; MCF7 cell line) was 0.117 ± 0.004 µM and the “%inh” value ([7]; Eef2, conc 0.01 (log -2)) was 16.5%. The “%inh” value ([7]; Eef2, conc 0.1 (log -1)) was 32.8%, the “%inh” value ([7]; Eef2, conc 1 (log 0)) was 48.2% and the “%inh” value ([7]; Eef2, conc 10 (log 1)) was 76.5%. For the same compound, the “%inh” value ([7]; Eef2, conc 100 (log 2)) was 91.7%, the IC50 ([7]; read-out: Eef2 kinase (IC50 ± SD)) was 0.689 ± 0.036 µM and the “phase of cell cycle arrest” value ([8]; MCF7 cell line) was “S phase”. The “DNA content %G0-G1” value [8, 9] was 52.03%, the “DNA content %G2/M” value [8, 9] was 10.05% and the “DNA content %S” value [8, 9] was 37.92%.
